Assay results reported in patent publication US8431523B2, “Oligomeric biosurfactants in dermatocosmetic compositions” (priority 2006, dated 2013).
Non-standard residues stand in square brackets, D forms with d. Residues, ends and D or L forms follow the SMILES beside them. *: point of attachment. Palmitoyl = CCCCCCCCCCCCCCCC(=O)*; Myristoyl = CCCCCCCCCCCCCC(=O)*

Experiments:
[1] = test system: E. coli, P. aeruginosa, P. cepacia, S. aureus, including MRSA, S. epidermidis, and C. albicans; format: cell-based
From the text: By “antimicrobial” activity is meant the ability to inhibit the growth of at least one microbial organism selected from the group consisting E. coli, P. aeruginosa, S. aureus and C. albicans, as confirmed by optical density measurement (“OD”).
By “inhibition of growth” is meant reduction or absence of an increase greater than 5% in OD, a dimensionless measure of turbidity that is proportional to the amount of microbial cells present in a sample. For illustrative purposes, a OAB according to the present invention is added to a culture plate on which E. coli is present at a final concentration of about 5×10^3 cfu/ml. The plate is then incubated at about 37° C. for about 24 hours at which time the E. coli is resuspended by shaking, and OD is measured at about 600 nm. Thus, a reduction or absence of an increase greater than 5% in OD confirms the antimicrobial nature of the OAB with respect to E. coli.
Minimum inhibitory concentration (“MIC”) is a method well-known to those of skill in the art for expressing antimicrobial activity. A compound to be tested is serially diluted into growth medium, inoculated with culture and then incubated. The MIC is the lowest dilution of compound that inhibits or prevents growth of the target microorganism.
A further aspect of the present invention is directed to oligomeric acylated biosurfactants having a CMC of less than about 100 ppm in an aqueous environment of MEM Solution that reduces the surface tension of the MEM Solution to less than about […] where the OAB consists essentially of two to nine amino acid residues, at least one of which is charged, and has a MIC of less than 100 ppm for at least two of the following microorganisms: E. coli, P. aeruginosa, P. cepacia, S. aureus, including MRSA, S. epidermidis, and C. albicans. OABs meeting this criterion are selected from the group consisting of: Myr-GR-amide (P300); Myr-KK-amide (P315); Pal-HR-amide (P320); Myr-KK-acid (P347); SEQ ID NO 79 (P367); Myr-GHR-amide (P245); Pal-GHR-amide (P250); Myr-GRK-amide (P303); Pal-G-H—[R]^D-amide (P366); SEQ ID NO 84 (368); SEQ ID NO 58 (P370); SEQ ID NO 59 (P360); SEQ ID NO 60 (P373); SEQ ID NO 61 (P376); SEQ ID NO 62 (P369); SEQ ID NO 63 (P379); SEQ ID NO 64 (P381); SEQ ID NO 65 (P416); SEQ ID NO 66 (P383); and SEQ ID NO 67 (P289).

[2] = test system: metabolic soluble proteins; experiment: CBQCA Protein Quantitation Assay (metabolic soluble protein); format: cell-based
Procedure: A first aspect of the present invention is directed to OABs having an ability to increase metabolic soluble proteins by at least about 20%. For purposes of the present invention, metabolic soluble protein is measured using the CBQCA Protein Quantitation Assay from Molecular Probes, Inc. (Eugene, Oreg.). This assay is based on aquinoline-2-carboxaldehyde derivative, which specifically reacts with primary amines to form conjugates capable of electrophoretic or chromatographic analysis. More specifically, in the presence of the cyanide anion, the quinoline-2-carboxaldehyde derivative reacts with primary amines, including those on proteins, and produces a highly-fluorescent emission at 550 nm.

Compound	MIC for at least two of the listed microorganisms [1]	further results
CCCCCCCCCCCCCC(=O)NCC(=O)N[C@@H](Cc1c[nH]cn1)C(=O)N[C@@H](CCCNC(=N)N)C(N)=O [P245, Myr-GHR-amide] (Myristoyl-Gly-His-Arg-NH2)	less than 100 ppm	–
CCCCCCCCCCCCCCCC(=O)NCC(=O)N[C@@H](Cc1c[nH]cn1)C(=O)N[C@@H](CCCNC(=N)N)C(N)=O [P250, Pal-GHR-amide] (Palmitoyl-Gly-His-Arg-NH2)	less than 100 ppm	–
CCCCCCCCCCCCCC(=O)N[C@@H](CC(C)C)C(=O)N[C@@H](CCCCN)C(=O)N[C@@H](C)C(=O)N[C@@H](CCCCN)C(N)=O [P289, Myr-LKAK-amide] (Myristoyl-LKAK-NH2)	less than 100 ppm	–
CCCCCCCCCCCCCC(=O)NCC(=O)N[C@@H](CCCNC(=N)N)C(N)=O [P300, Myr-GR-amide] (Myristoyl-Gly-Arg-NH2)	less than 100 ppm	–
CCCCCCCCCCCCCC(=O)NCC(=O)N[C@@H](CCCNC(=N)N)C(=O)N[C@@H](CCCCN)C(N)=O [P303, Myr-GRK-amide] (Myristoyl-Gly-Arg-Lys-NH2)	less than 100 ppm	–
CCCCCCCCCCCCCC(=O)N[C@@H](CCCCN)C(=O)N[C@@H](CCCCN)C(N)=O [P315, Myr-KK-amide]	less than 100 ppm	–
CCCCCCCCCCCCCCCC(=O)N[C@@H](Cc1c[nH]cn1)C(=O)N[C@@H](CCCNC(=N)N)C(N)=O [P320, Pal-HR-amide] (Palmitoyl-His-Arg-NH2)	less than 100 ppm	–
CCCCCCCCCCCCCC(=O)N[C@@H](CCCCN)C(=O)N[C@@H](CCCCN)C(=O)O [P347, Myr-KK-acid]	less than 100 ppm	–
CCCCCCCCCCCCCC(=O)N[C@H](CCCCN)C(=O)N[C@@H](CCCCN)C(=O)N[C@H](C)C(=O)N[C@@H](CC(C)C)C(=O)N[C@H](CCCCN)C(N)=O [P360, Myr-[K]^D-K-[A]^D-L-[K]^D-amide] (Myristoyl-[dK]K[dA]L[dK]-NH2)	less than 100 ppm	–
CCCCCCCCCCCCCCCC(=O)NCC(=O)N[C@@H](Cc1c[nH]cn1)C(=O)N[C@H](CCCNC(=N)N)C(N)=O [P366, Pal-G-H-[R]^D-amide] (Palmitoyl-Gly-His-[dR]-NH2)	less than 100 ppm	–
CCCCCCCCCCCCCCCC(=O)N[C@@H](CCCCN)C(=O)N[C@H](CCCCN)C(N)=O [P367, Pal-K-[K]^D-amide]	less than 100 ppm	–
CCCCCCCCCCCCCC(=O)N[C@@H](CCCCN)C(=O)N[C@@H](CCCCN)C(=O)N[C@@H](C)C(=O)N[C@@H](CC(C)C)C(=O)N[C@@H](CCCCN)C(=O)N[C@@H](CCCCN)C(N)=O [P369, Myr-KKALKK-amide] (Myristoyl-KKALKK-NH2)	less than 100 ppm	–
CCCCCCCCCCCCCCCC(=O)N[C@@H](CC(C)C)C(=O)N[C@@H](C)C(=O)N[C@@H](CCCCN)C(=O)N[C@@H](CCCCN)C(N)=O [P370, Pal-LAKK-amide] (Palmitoyl-LAKK-NH2)	less than 100 ppm	–
CCCCCCCCCCCCCC(=O)N[C@@H](CCCCN)C(=O)N[C@@H](CCCCN)C(=O)N[C@@H](CO)C(=O)N[C@@H](CC(C)C)C(=O)N[C@@H](CCCCN)C(N)=O [P373, Myr-KKSLK-amide] (Myristoyl-KKSLK-NH2)	less than 100 ppm	–
CCCCCCCCCCCCCC(=O)N[C@@H](CC(C)C)C(=O)N[C@@H](C)C(=O)N[C@H](C(=O)N[C@@H](CCCCN)C(=O)N[C@@H](CCCCN)C(N)=O)[C@@H](C)CC [P376, Myr-LAIKK-amide] (Myristoyl-LAIKK-NH2)	less than 100 ppm	–
CCCCCCCCCCCCCC(=O)N[C@@H](CCCCN)C(=O)N[C@@H](CCCCN)C(=O)N[C@@H](C)C(=O)N[C@@H](CC(C)C)C(=O)N[C@@H](CCCCN)C(=O)N[C@@H](C)C(N)=O [P379, Myr-KKALKA-amide] (Myristoyl-KKALKA-NH2)	less than 100 ppm	–
CCCCCCCCCCCCCC(=O)N[C@@H](CC(C)C)C(=O)N[C@@H](CCCCN)C(=O)N[C@@H](CCCCN)C(=O)N[C@@H](C)C(=O)N[C@@H](CC(C)C)C(=O)N[C@@H](CCCCN)C(N)=O [P381, Myr-LKKALK-amide] (Myristoyl-LKKALK-NH2)	less than 100 ppm	–
CCCCCCCCCCCCCC(=O)N[C@@H](CO)C(=O)N[C@@H](CC(=O)O)C(=O)NCC(=O)N[C@@H](CCCNC(=N)N)C(N)=O [P383, Myr-SDGR-amide] (Myristoyl-SDGR-NH2)	less than 100 ppm	–
CCCCCCCCCCCCCC(=O)N[C@@H](CCCNC(=N)N)C(N)=O [P391, Myr-R-amide]	–	increases metabolic soluble protein (qualitative) [2]: increases metabolic soluble protein
CCCCCCCCCCCCCC(=O)N[C@H](C(=O)N[C@H](C(=O)N[C@H](C(=O)N[C@@H](CCCCN)C(=O)N[C@@H](CCCCN)C(=O)N[C@@H](CCCCN)C(N)=O)[C@@H](C)CC)[C@@H](C)CC)[C@@H](C)CC [P416, Myr-IIIKKK-amide] (Myristoyl-IIIKKK-NH2)	less than 100 ppm	–
Myr-III-amide [P420]	–	increase metabolic soluble proteins [2]: at least 20%
Myr-RH-amide [P393]	–	increases metabolic soluble protein (qualitative) [2]: increases metabolic soluble protein
Pal-KK-amide [P316]	–	increases metabolic soluble protein (qualitative) [2]: increases metabolic soluble protein
Pal-RR-amide [P318]	–	increases metabolic soluble protein (qualitative) [2]: increases metabolic soluble protein
